Source: ChEMBL document CHEMBL6127124, “Structure-Activity Relationships and Discovery of (S)-5-(tert-Butyl)-11-(difluoromethoxy)-9-methoxy-2-oxo-1,2,5,6-tetrahydropyrido[2',1':2,3]imidazo[4,5-h]quinoline-3-carboxylic Acid (AB-161), a Novel Orally Available and Liver-Centric HBV RNA Destabilizer” (J Med Chem, 2024)

What was measured:
CYP2C9 = CYP2C9 (Homo sapiens, UniProt P11712); assay: Inhibition of CYP2C9 in human liver microsomes using diclofenac as substrate preincubated for 30 min followed by NADPH addition measured after 12 mins by LC-MS/MS analysis; type: ADME, Microsome; settings: human, liver microsomes, probe diclofenac
Sequence of CYP2C9 (P11712 whole entry): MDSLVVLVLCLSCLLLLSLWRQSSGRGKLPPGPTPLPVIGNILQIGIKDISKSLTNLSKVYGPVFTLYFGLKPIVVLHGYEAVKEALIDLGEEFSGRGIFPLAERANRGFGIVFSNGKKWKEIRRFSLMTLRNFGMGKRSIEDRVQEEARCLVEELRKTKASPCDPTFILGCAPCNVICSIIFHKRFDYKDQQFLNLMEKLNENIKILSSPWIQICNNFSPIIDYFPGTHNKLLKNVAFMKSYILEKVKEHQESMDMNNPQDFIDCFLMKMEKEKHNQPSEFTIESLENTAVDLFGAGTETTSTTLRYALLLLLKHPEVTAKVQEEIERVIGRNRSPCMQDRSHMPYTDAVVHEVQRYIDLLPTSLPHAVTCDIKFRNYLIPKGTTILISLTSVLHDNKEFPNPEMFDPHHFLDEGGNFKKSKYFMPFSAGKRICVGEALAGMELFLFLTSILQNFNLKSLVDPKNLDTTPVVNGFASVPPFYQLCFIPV

[1] = Ratio of total drug concentration in liver to plasma in Sprague-Dawley rat at 10 mg/kg, po measured for 24 hrs by LC-MS/MS analysis; type: ADME, organism-based; settings: liver and plasma
CYP3A4 = CYP3A4 (Homo sapiens, UniProt P08684); assay: Inhibition of CYP3A4 in human liver microsomes using midazolam as substrate preincubated for 30 min followed by NADPH addition measured after 12 mins by LC-MS/MS analysis; type: ADME, Microsome; settings: human, liver microsomes, probe midazolam
Sequence of CYP3A4 (P08684 whole entry): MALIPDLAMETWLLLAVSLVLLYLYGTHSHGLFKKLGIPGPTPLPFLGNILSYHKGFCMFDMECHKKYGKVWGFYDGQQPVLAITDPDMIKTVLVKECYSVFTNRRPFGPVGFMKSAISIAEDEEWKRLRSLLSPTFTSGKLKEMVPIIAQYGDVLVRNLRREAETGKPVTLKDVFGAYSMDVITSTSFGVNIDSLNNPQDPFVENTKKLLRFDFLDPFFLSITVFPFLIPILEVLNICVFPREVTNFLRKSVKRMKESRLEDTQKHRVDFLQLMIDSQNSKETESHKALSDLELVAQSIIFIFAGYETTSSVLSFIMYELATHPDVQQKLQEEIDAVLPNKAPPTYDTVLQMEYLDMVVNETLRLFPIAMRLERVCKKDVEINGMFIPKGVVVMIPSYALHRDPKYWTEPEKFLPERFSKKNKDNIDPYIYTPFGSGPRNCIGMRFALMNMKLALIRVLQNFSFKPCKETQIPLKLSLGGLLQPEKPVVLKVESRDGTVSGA

[2] = Toxicity in Beagle dog assessed as sporadic splayed limbs at 5 to 15 mg/kg, po qd measured after 38 days; type: organism-based, Canis lupus familiaris; settings: in vivo, 912 h, dose 5-15 mg/kg, time 38 day
[3] = Total Cmax in Beagle dog at 5 mg/kg, po qd measured after 91 days; type: ADME, organism-based, Canis lupus familiaris; settings: in vivo, time 91 day
[4] = Oral bioavailability in CD-1 mouse at 10 mg/kg measured for 24 hrs by LC-MS/MS analysis; type: ADME, organism-based; settings: in vivo
[5] = Total Cmax in Beagle dog at 15 mg/kg, po qd measured after 91 days; type: ADME, organism-based, Canis lupus familiaris; settings: in vivo, time 91 day
[6] = Total AUC (0 to 24 hrs) in Beagle dog at 45 mg/kg, po qd measured after 91 days; type: ADME, organism-based, Canis lupus familiaris; settings: in vivo, time 91 day
[7] = Free AUC (0 to 24 hrs) in Beagle dog at 60 mg/kg, po qd measured after 91 days; type: ADME, organism-based, Canis lupus familiaris; settings: in vivo, 2184 h, time 91 day
CYP1A2 = biological target: T1, CYP1A2 (Homo sapiens, UniProt P05177); assay: Inhibition of CYP1A2 in human liver microsomes using phenacetin as substrate preincubated for 30 min followed by NADPH addition measured after 12 mins by LC-MS/MS analysis; type: ADME, Microsome; settings: human, liver microsomes, probe phenacetin
T1 sequence (P05177 whole entry): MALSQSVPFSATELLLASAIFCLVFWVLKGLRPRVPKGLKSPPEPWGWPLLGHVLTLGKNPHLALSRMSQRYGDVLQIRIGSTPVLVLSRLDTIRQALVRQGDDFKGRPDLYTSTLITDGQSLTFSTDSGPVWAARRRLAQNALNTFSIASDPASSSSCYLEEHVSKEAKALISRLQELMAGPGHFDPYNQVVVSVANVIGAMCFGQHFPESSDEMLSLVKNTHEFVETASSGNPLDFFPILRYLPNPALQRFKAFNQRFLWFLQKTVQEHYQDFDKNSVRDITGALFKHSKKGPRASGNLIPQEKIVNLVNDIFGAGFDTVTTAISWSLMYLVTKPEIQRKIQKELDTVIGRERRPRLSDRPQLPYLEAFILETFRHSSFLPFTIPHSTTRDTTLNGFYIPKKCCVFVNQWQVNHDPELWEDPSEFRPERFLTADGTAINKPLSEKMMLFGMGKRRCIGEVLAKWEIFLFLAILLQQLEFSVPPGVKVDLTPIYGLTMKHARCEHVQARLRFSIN

[8] = Free AUC (0 to 24 hrs) in Beagle dog at 5 mg/kg, po qd measured after 91 days; type: ADME, organism-based, Canis lupus familiaris; settings: in vivo, 2184 h, time 91 day
[9] = Chemical stability of compound in PBS assessed as compound remaining measured after 6 days by HPLC UV analysis; type: physicochemical; settings: buffer, 144 h; time 6 day
[10] = Ratio of drug concentration in heart to plasma of Sprague-Dawley rat at 10 mg/kg, po measured for 24 hrs by LC-MS/MS analysis; type: ADME, organism-based; settings: heart and plasma
[11] = Toxicity in Beagle dog assessed as animal death at 60 mg/kg, po qd measured after 45 days; type: organism-based, Canis lupus familiaris; settings: in vivo, 1080 h, time 45 day
[12] = Free Cmax in Beagle dog at 45 mg/kg, po qd measured after 91 days; type: ADME, organism-based, Canis lupus familiaris; settings: in vivo, 2184 h, time 91 day
CYP2C19 = CYP2C19 (Homo sapiens, UniProt P33261); assay: Inhibition of CYP2C19 in human liver microsomes using S-mephenytoin as substrate preincubated for 30 min followed by NADPH addition measured after 12 mins by LC-MS/MS analysis; type: ADME, Microsome; settings: human, liver microsomes, probe S-mephenytoin
Sequence of CYP2C19 (P33261 whole entry): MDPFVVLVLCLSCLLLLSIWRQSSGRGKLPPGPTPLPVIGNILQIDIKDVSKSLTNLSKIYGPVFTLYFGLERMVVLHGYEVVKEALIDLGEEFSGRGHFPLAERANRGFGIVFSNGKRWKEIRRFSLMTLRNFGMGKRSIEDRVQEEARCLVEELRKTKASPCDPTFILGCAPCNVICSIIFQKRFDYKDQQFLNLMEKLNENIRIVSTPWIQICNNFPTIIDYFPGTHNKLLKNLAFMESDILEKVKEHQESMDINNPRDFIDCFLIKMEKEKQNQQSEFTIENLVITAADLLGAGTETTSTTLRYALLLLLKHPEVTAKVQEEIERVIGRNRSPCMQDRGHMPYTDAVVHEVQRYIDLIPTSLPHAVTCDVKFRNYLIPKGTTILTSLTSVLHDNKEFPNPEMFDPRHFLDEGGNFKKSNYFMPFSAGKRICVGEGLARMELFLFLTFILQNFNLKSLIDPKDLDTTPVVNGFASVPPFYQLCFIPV

[13] = Drug concentration in Sprague-Dawley rat heart at 10 mg/kg, po measured for 24 hrs by LC-MS/MS analysis; type: ADME, organism-based; settings: read-out: Ct
[14] = Free Cmax in Beagle dog at 15 mg/kg, po qd measured after 60 days; type: ADME, organism-based, Canis lupus familiaris; settings: in vivo, 1440 h, time 60 day
[15] = Toxicity in male Beagle dog assessed as decrease in body weight at 15 to 45 mg/kg, po qd measured for 60 days; type: organism-based, Canis lupus familiaris; design: scale not given: the % may be the effect or the level left; settings: in vivo, 1440 h, dose 15-45 mg/kg, time 60 day
[16] = Toxicity in female Beagle dog assessed as fold decrease in cholesterol level at 15 to 45 mg/kg, po qd measured for 60 days; type: organism-based, Canis lupus familiaris; design: scale not given: the % may be the effect or the level left; settings: in vivo, 1440 h, dose 15-45 mg/kg, time 60 day
[17] = Toxicity in Beagle dog assessed as splayed limbs at 15 to 45 mg/kg, po qd measured after 60 days; type: organism-based, Canis lupus familiaris; settings: in vivo, 1440 h, dose 15-45 mg/kg, time 60 day
[18] = Toxicity in female Beagle dog assessed as fold decrease in calcium level at 15 to 45 mg/kg, po qd measured for 60 days; type: organism-based, Canis lupus familiaris; design: scale not given: the % may be the effect or the level left; settings: in vivo, 1440 h, dose 15-45 mg/kg, time 60 day
[19] = Toxicity in female Beagle dog assessed as decrease in total protein level at 15 to 45 mg/kg, po qd measured for 60 days; type: organism-based, Canis lupus familiaris; design: scale not given: the % may be the effect or the level left; settings: in vivo, 1440 h, dose 15-45 mg/kg, time 60 day
[20] = Toxicity in male Beagle dog assessed as fold increase in alanine aminotransferase level at 45 mg/kg, po qd measured for 60 days; type: organism-based, Canis lupus familiaris; settings: in vivo, 1440 h, time 60 day
[21] = Toxicity in Beagle dog assessed as uncoordinated movements at 15 to 45 mg/kg, po qd measured after 60 days; type: organism-based, Canis lupus familiaris; settings: in vivo, 1440 h, dose 15-45 mg/kg, time 60 day
[22] = Total Cmax in Beagle dog at 45 mg/kg, po qd measured after 60 days; type: ADME, organism-based, Canis lupus familiaris; settings: in vivo, time 60 day

COCCCOc1cc2c(nc1OC)-c1cc(=O)c(C(=O)O)cn1[C@H](C(C)C)C2
IC50 at 12 min (CYP2C9): > 25 µM
Kp at 24 h [1]: 3
IC50 at 12 min (CYP3A4): > 25 µM
Activity [2]: Toxic
Cmax [3]: 4.68 µg/mL
bioavailability [4]: 112%
Cmax [5]: 11.5 µg/mL
AUC at 2184 h [6]: 95.2 µg·h/mL
fAUC [7]: 47.5 µg·h/mL
IC50 at 12 min (CYP1A2): > 25 µM
fAUC [8]: 3.9 µg·h/mL
Stability [9]: Stable
Kp at 24 h [10]: 1.9
Activity [11]: Toxic
fCmax [12]: 10300 ng/mL
IC50 at 12 min (CYP2C19): > 25 µM
concentration at 24 h [13]: 53 ng/g

COc1cc(OC(F)F)c2nc3c(n2c1)C[C@@H](C(C)(C)C)c1cc(C(=O)O)c(=O)[nH]c1-3
fCmax [14]: 653 ng/mL
Activity [15]: < 15%
Activity [16]: < 30%
Activity [17]: Non-Toxic
Activity [18]: < 10%
Activity [19]: < 15%
fold change (FC) [20]: < 2
Activity [21]: Non-Toxic
Cmax [22]: 17.8 µg/mL
